Experimental data: patent US8513287B2, “Heterocyclic ring and phosphonoxymethyl group substituted pyridine derivatives and antifungal agent containing same” (Eisai R&D Management Co., Ltd., priority 2007, dated 2013)
≈ marks a conversion by molar mass, not a printed value. Where two headings read alike, the source gives them in different places.

Key:
[1] = Comparative test of solubility in water (Britton-Robinson buffer); conditions: 25 °C
Method: 3-(3-(4-(Pyridin-2-yloxymethyl)-benzyl)-isoxazol-5-yl)-pyridin-2-ylamine described in Reference Example 1, which is the parent compound, and the compound of Example 1 were compared for solubility in a Britton-Robinson buffer (ionic strength: 0.3) at 25° C.

[2] = Pharmacokinetic evaluation in mice; assay type: in vivo, ICR mice; conditions: tail vein, 3 mg/kg, FIG. 15
Method: (§1) (1) Preparation of Administration Solution
(§2) (2) Administration, and Sampling of Blood and Plasma
Using five-week-old female ICR mice (Charles River Japan), with the number of mouse in one group being 2 mice, the compound according to the present invention and an active form thereof were administered into the tail vein in a dose of 3 mg/kg. The tail vein was punctured 0.25, 0.5, 1.5, 3, 5, and 8 hours after administration, and blood was collected with a heparin-treated pipette.
(§3) (3) Plasma Concentration Measurement Method

[3] = in vivo, 0.4 mg/kg
Method: as §1, §2
Blood was collected from the radial cutaneous vein 0.25, 0.5, 1, 2, 4, and 6 hours after administration using a heparin-treated syringe. The blood samples were put into sampling tubes and stored under ice cooling, they were then centrifuged for 5 minutes at 10,500×g and at 4° C. The plasma thus obtained was accurately divided into 5 μL amounts and stored at −20° C. until they were analyzed.
as §3
Imipramine hydrochloride (Sigma) was dissolved in a mixed solution of acetonitrile and methanol (1:1) so that the concentration would be 0.5 μmol/L, to prepare an internal standard substance solution (IS solution). The plasma was melted, 200 μL of IS solution was then added thereto and mixed, and this was centrifuged (deproteinated) for 10 minutes at 1500×g and at 4° C., the supernatant was then analyzed by LC-MS (Waters).

[4] = In vitro activity compared with the parent compound; conditions: ratio to parent compound
[5] = system: C. albicans E81022 strain; test: Experimental systemic candidal infection model in mice; assay type: in vivo; conditions: for Mean Survival Days: tail vein at 0.5 and 9 hours after infection, observed until 14 days
Method: (1) Preparation of Fungal Inoculant
A standing culture of C. albicans E81022 strain was carried out for 24 hours at 35° C. in sabouraud dextrose agar medium (Difco), and the recovered fungal cells were suspended in sterile physiological saline (Otsuka Pharmaceutical). By counting the fungal number on cytometry plate, the suspension was diluted to 2×10^7 cells/mL with sterilized physiological saline to serve fungal inoculum.
The fungal inoculum was used in an amount of 0.2 mL to inoculate the mice in the tail vein (4×10^6 cells/mouse).
(3) Preparation of Agent Solution, and Treatment
The compound of Example 1 was dissolved in concentrations of 13 mg/mL and 3.25 mg/mL with a 50 mM glycine buffer with a pH of 10 (Wako Pure Chemicals), these solutions were then diluted 10 times with 5% glucose (Otsuka Pharmaceutical). At 0.5 and 9 hours after infection, 0.2 mL of the agent solution was administered into a tail vein of the mice. The agent concentrations were 2.5 and 10 mg/kg (calculated as the active form). The number of animals in one group was 5 animals.
The protective effect was determined by observing life/death until 14 days after infection and calculating the mean survival days. The protective effect on the systemic candidal infection was measured for the compound of Example 1 by the method described in section 2.

Row | solubility ([1]; Britton-Robinson buffer, pH 5, aqueous buffer) | solubility ([1]; Britton-Robinson buffer, pH 7, aqueous buffer) | solubility ([1]; Britton-Robinson buffer, pH 8, aqueous buffer) | solubility ([1]; Britton-Robinson buffer, pH 9, aqueous buffer) | Compound | plasma concentration of the active form after administration of the compound of Example 1 [2] | plasma concentration of the compound of Example 1 [2] | solubility ([1]; pH 5, aqueous buffer) | solubility ([1]; pH 7, aqueous buffer) | solubility ([1]; pH 8, aqueous buffer) | solubility ([1]; pH 9, aqueous buffer) | plasma concentration of the active form after administration of the compound of Example 1 [3] | plasma concentration of the compound of Example 1 [3] | in vitro activity with respect to the parent compound (Reference Example 1) [4] | Mean Survival Days ([5]; 3.25 mg/kg (calculated as active form: 2.5 mg/kg)) | Mean Survival Days ([5]; 13 mg/kg (calculated as active form: 10 mg/kg)) | protective effect on the systemic candidal infection (survival versus untreated group) ([5]; life/death until 14 days after infection)
1 | < 100 µg/mL | < 100 µg/mL | < 100 µg/mL | < 100 µg/mL | Nc1ncccc1-c1cc(Cc2ccc(COc3ccccn3)cc2)no1 [Parent compound, 3-(3-(4-(Pyridin-2-yloxymethyl)-benzyl)-isoxazol-5-yl)-pyridin-2-ylamine, reference compound] |  |  |  |  |  |  |  |  |  |  |  | 
2 |  |  |  |  | Nc1c(-c2cc(Cc3ccc(COc4ccccn4)cc3)no2)ccc[n+]1COP(=O)([O-])O [Example 1, 2-Amino-1-((phosphonoxy)methyl)-3-(3-((4-((2-pyridinyloxy)methyl)phenyl)methyl)-5-isoxazolyl)-pyridinium] | increased quickly from immediately after administration | decreased quickly after administration | 1900 µg/mL (≈ 4.06 mM) | 10500 µg/mL (≈ 22.4 mM) | 16400 µg/mL (≈ 35 mM) | > 21100 µg/mL | rose quickly | under the detection limit | 1/100 | 7.4 days | 12.8 days | survived for a longer time as compared to the untreated group
